Assay [1] deals with dermatophytes, Hyphomycetes and yeasts. As to the kind of experiment: Antimycotic in vitro activity, serial dilution test, overall comparison with the prior art. It is filed as cell-based. The following applies: in words. On the procedure:
(§1) The in vitro tests were carried out in a serial dilution test using inocula of microorganisms of on average 5×10^3 to 10^4 microorganisms/ml of substrate. The nutrient medium used was
(§2) (a) for dermatophytes and Hyphomycetes: Kimmig's test medium
Meat extract-dextrose broth.
(§3) The incubation temperature was 28° to 37° C., and the incubation period was 24 to 48 hours with yeasts and 96 hours with Dermatophytes and hyphomycetes.

In assay [2] the test system is Aspergillus fumigatus. The experiment in a line: Antimycotic in vitro activity, serial dilution test (MIC), Aspergillus fumigatus. It counts as cell-based. The following applies: Kimmig's test medium, 28° to 37° C., 96 hours. The protocol: as §1, §2, §3
In assay [3] the test system is Candida albicans. The experiment in a line: Antimycotic in vitro activity, serial dilution test (MIC), Candida albicans. It is filed as cell-based. The following applies: Meat extract-dextrose broth, 28° to 37° C., 24 to 48 hours. The protocol: (§4) The in vitro tests were carried out in a serial dilution test using inocula of microorganisms of on average 5×10^3 to 10^4 microorganisms/ml of substrate. The nutrient medium used was (b) for yeasts: Meat extract-dextrose broth. The incubation temperature was 28° to 37° C., and the incubation period was 24 to 48 hours with yeasts and 96 hours with Dermatophytes and hyphomycetes.

The subject of assay [4] is Trichophyton mentagr. The experiment in a line: Antimycotic in vitro activity, serial dilution test (MIC), Trichophyton mentagrophytes. The following applies: Kimmig's test medium, 28° to 37° C., 96 hours. It counts as cell-based. On the procedure: as §1, §2, §3
Assay [5] deals with Torulopsis glabrata. As to the kind of experiment: Antimycotic in vitro activity, serial dilution test (MIC), Torulopsis glabrata. It counts as cell-based. The following applies: Nakaseomyces glabratus; Meat extract-dextrose broth; 28° to 37° C.; 24 to 48 hours. On the procedure:
as §4

Assay [6] has as its system Candida. As to the kind of experiment: Antimycotic in vivo activity (oral) in mouse candidosis. Set-up: species or system mouse (SPF-CF1). The following applies: 10 to 100 mg/kg; for action in mouse candidosis, in words / Action (oral) in mouse candidosis: 6th day p.i.; for Action (oral) in mouse candidosis: one hour before and seven hours after infection; for surviving on the 6th day p.i.: untreated control about 5% survival. On the procedure:
Mice of the SPF-CF1 type were infected intravenously with 1-2×10^6 exponentially growing Candida cells which are suspended in physiological saline solution. One hour before and seven hours after infection, the animals are treated orally in each case with 10 to 100 mg/kg of body weight of the preparation. Untreated animals died on the 3rd to 6th day post-infection. The survival rate on the 6th day post-infection was about 5% in untreated control animals.

The subject of assay [7] is Trichophyton mentagrophytes. The experiment in a line: Antimicrobial in vivo activity (topical) in the experimental guinea-pig trichophytosis model. On the set-up: species or system guinea-pig (Pirbright white). The following applies: 1 × daily, 0.1% strength solution, from 3rd day. On the procedure:
White guinea-pigs of the Pirbright white strain are infected on the shaven, non-scarified back with a micro- and macroconidia suspension of Trichophyton mentagrophytes. The infected animals were treated topically 1 × daily with a 0.1% strength solution of the preparation according to the invention (in dimethyl sulphoxide: glycerol=1.4) beginning with the 3rd day. In untreated animals, the typical picture of a dermatophytosis with reddening, scaling and hair loss up to total integumental defect of the infection site developed within 12 days p.i.

Values after ≈ are worked out from the molar mass of the structure shown.

A word on the MIC: it is the smallest concentration in the dilution series that meets the test's criterion for growth inhibition. With `Cc1ccc(C(O)(Cn2cncn2)C2(n3cnc(Cl)n3)CC2)cc1` (stereo not shown) [Example 8, 1-[1-(3-Chloro-1,2,4-triazol-1-yl)-cyclopropyl]-1-(4-methylphenyl)-2-(1,2,4-triazol-1-yl)-ethan-1-ol], the “antimycotic action compared with compounds (A) and (B) known from the prior art” value in assay [1] was “better antimycotic action than the compounds (A) and (B)”. Besides, the MIC was 16 µg/mL (≈ 46.4 µM) in assay [2], 16 µg/mL (≈ 46.4 µM) in assay [3], 4 µg/mL (≈ 11.6 µM) in assay [4] and > 64 µg/mL in assay [5].
Consider `OC(Cn1cncn1)(Cn1cncn1)c1ccccc1` [(B), reference compound], for which the MIC in assay [2] was > 64 µg/mL; in assay [3] it was 64 µg/mL (≈ 237 µM); in assay [4] it was 64 µg/mL (≈ 237 µM); in assay [5] it was > 64 µg/mL.
For the compound `OC(Cn1cncn1)(c1ccc(F)c(F)c1)C1(n2cnc(Cl)n2)CC1` (stereo not shown) [Example 11, 1-[1-(3-Chloro-1,2,4-triazol-1-yl)-cyclopropyl]-1-(3,4-difluorophenyl)-2-(1,2,4-triazol-1-yl)-ethan-1-ol], in assay [1], the “antimycotic action compared with compounds (A) and (B) known from the prior art” value was “better antimycotic action than the compounds (A) and (B)”. Besides, the “action in mouse candidosis, in words” value in assay [6] is “good to very good action”. In addition, the “Action (oral) in mouse candidosis” value in assay [6] is reported as “+++++ (very good action = 90% surviving on the 6th day p.i.)”. Further, the “surviving on the 6th day p.i.” value in assay [6] is recorded as > 80%. For the same compound, the MIC is 64 µg/mL (≈ 175 µM) in assay [2], 16 µg/mL (≈ 43.6 µM) in assay [3], 16 µg/mL (≈ 43.6 µM) in assay [4] and > 64 µg/mL in assay [5]. Moreover, the “action in guinea-pig trichophytosis, in words” value in assay [7] is recorded as “good action”.
For `OC(Cn1cncn1)(c1ccc(Cl)cc1)C1(n2cnc(Cl)n2)CC1` (stereo not shown) [Example 4, 1-(4-Chlorophenyl)-1-[1-(3-chloro-1,2,4-triazol-1-yl)-cyclopropyl]-2-(1,2,4-triazol-1-yl)-ethan-1-ol], the “antimycotic action compared with compounds (A) and (B) known from the prior art” value in assay [1] was “better antimycotic action than the compounds (A) and (B)”. The “action in mouse candidosis, in words” value in assay [6] is reported as “good to very good action”. In addition, in assay [6], the “Action (oral) in mouse candidosis” value was “+++++ (very good action = 90% surviving on the 6th day p.i.)”. For the same compound, in assay [6], the “surviving on the 6th day p.i.” value is recorded as > 80%. Also, the minimum inhibitory concentration (MIC) in assay [2] was 32 µg/mL (≈ 87.6 µM); in assay [3] it was 8 µg/mL (≈ 21.9 µM); in assay [4] it was 4 µg/mL (≈ 11 µM); in assay [5] it was > 64 µg/mL.
For the compound `OC(Cn1cncn1)(c1ccccc1)C1(n2cnc(Cl)n2)CC1` (stereo not shown) [Example 6, 1-[1-(3-Chloro-1,2,4-triazol-1-yl)-cyclopropyl]-1-phenyl-2-(1,2,4-triazol-1-yl)-ethan-1-ol], the “antimycotic action compared with compounds (A) and (B) known from the prior art” value in assay [1] was “better antimycotic action than the compounds (A) and (B)”. Besides, the “action in mouse candidosis, in words” value in assay [6] is “good to very good action”. Further, the “Action (oral) in mouse candidosis” value in assay [6] is “+++++ (very good action = 90% surviving on the 6th day p.i.)”. In addition, the “surviving on the 6th day p.i.” value in assay [6] was > 80%. In addition, the minimal inhibitory concentration (MIC) in assay [2] is 16 µg/mL (≈ 48.4 µM); in assay [3] it was 32 µg/mL (≈ 96.7 µM); in assay [4], 8 µg/mL (≈ 24.2 µM); in assay [5], > 64 µg/mL. Further, in assay [7], the “action in guinea-pig trichophytosis, in words” value is “good action”.
`OC(Cn1cncn1)(c1ccc(F)cc1)C1(n2cnc(Cl)n2)CC1` (stereo not shown) [Example 7, 1-[1-(3-Chloro-1,2,4-triazol-1-yl)-cyclopropyl]-1-(4-fluorophenyl)-2-(1,2,4-triazol-1-yl)-ethan-1-ol]: the “antimycotic action compared with compounds (A) and (B) known from the prior art” value in assay [1] was “better antimycotic action than the compounds (A) and (B)”. Further, the “action in mouse candidosis, in words” value in assay [6] is “good to very good action”. Further, the “Action (oral) in mouse candidosis” value in assay [6] is on record as “+++++ (very good action = 90% surviving on the 6th day p.i.)”. Besides, the “surviving on the 6th day p.i.” value in assay [6] is recorded as > 80%. Further, the MIC is 32 µg/mL (≈ 91.8 µM) in assay [2], 32 µg/mL (≈ 91.8 µM) in assay [3], 8 µg/mL (≈ 22.9 µM) in assay [4] and > 64 µg/mL in assay [5].
For `OC(Cn1cncn1)(Cn1cncn1)c1cccc(Cl)c1` [(A), reference compound], the MIC in assay [2] was > 64 µg/mL; in assay [3], > 64 µg/mL; in assay [4] it was 32 µg/mL (≈ 105 µM); in assay [5] it was > 64 µg/mL.
In the case of `OC(Cn1cncn1)(c1ccc(-c2ccccc2)cc1)C1(n2cnc(Cl)n2)CC1` (stereo not shown) [Example 9, 1-(4-Biphenyl)-1-[1-(3-chloro-1,2,4-triazol-1-yl)-cyclopropyl]-2-(1,2,4-triazol-1-yl)-ethan-1-ol], the “antimycotic action compared with compounds (A) and (B) known from the prior art” value in assay [1] is “better antimycotic action than the compounds (A) and (B)”. In addition, the MIC in assay [2] was 16 µg/mL (≈ 39.3 µM); in assay [3], 32 µg/mL (≈ 78.6 µM); in assay [4], 4 µg/mL (≈ 9.83 µM); in assay [5], 16 µg/mL (≈ 39.3 µM).
For `OC(Cn1cncn1)(c1ccc(F)cc1F)C1(n2cnc(Cl)n2)CC1` (stereo not shown) [Example 10, 1-[1-(3-Chloro-1,2,4-triazol-1-yl)-cyclopropyl]-1-(2,4-difluorophenyl)-2-(1,2,4-triazol-1-yl)-ethan-1-ol], the “antimycotic action compared with compounds (A) and (B) known from the prior art” value in assay [1] was “better antimycotic action than the compounds (A) and (B)”. Further, the “action in mouse candidosis, in words” value in assay [6] is “good to very good action”. Besides, the “Action (oral) in mouse candidosis” value in assay [6] is reported as “+++++ (very good action = 90% surviving on the 6th day p.i.)”. Further, the “surviving on the 6th day p.i.” value in assay [6] is listed as > 80%. Further, the MIC was 16 µg/mL (≈ 43.6 µM) in assay [2], 32 µg/mL (≈ 87.3 µM) in assay [3], 16 µg/mL (≈ 43.6 µM) in assay [4] and > 64 µg/mL in assay [5]. In addition, the “action in guinea-pig trichophytosis, in words” value in assay [7] is “good action”.

The values are drawn from patent US5126359A, “Substituted bisazoles and their use as medicaments” (Bayer Aktiengesellschaft, priority 1988, dated 1992).
